Test results: US20230026271A1, “Piperazine Compounds for Inhibiting CPS1” (Eisai R&D Management Co., Ltd., priority 2019, published 2023)

Molecular target: T1, CPS1 (Homo sapiens, UniProt P31327)
T1 construct: The full length, human CPS1 gene was cloned into pFastBac HTA; His6 (from the pFastBac HTA vector); made in house; host or cells: SF21 insect cells (baculovirus, Bac-to-bac)
T1 sequence (P31327 39-1500): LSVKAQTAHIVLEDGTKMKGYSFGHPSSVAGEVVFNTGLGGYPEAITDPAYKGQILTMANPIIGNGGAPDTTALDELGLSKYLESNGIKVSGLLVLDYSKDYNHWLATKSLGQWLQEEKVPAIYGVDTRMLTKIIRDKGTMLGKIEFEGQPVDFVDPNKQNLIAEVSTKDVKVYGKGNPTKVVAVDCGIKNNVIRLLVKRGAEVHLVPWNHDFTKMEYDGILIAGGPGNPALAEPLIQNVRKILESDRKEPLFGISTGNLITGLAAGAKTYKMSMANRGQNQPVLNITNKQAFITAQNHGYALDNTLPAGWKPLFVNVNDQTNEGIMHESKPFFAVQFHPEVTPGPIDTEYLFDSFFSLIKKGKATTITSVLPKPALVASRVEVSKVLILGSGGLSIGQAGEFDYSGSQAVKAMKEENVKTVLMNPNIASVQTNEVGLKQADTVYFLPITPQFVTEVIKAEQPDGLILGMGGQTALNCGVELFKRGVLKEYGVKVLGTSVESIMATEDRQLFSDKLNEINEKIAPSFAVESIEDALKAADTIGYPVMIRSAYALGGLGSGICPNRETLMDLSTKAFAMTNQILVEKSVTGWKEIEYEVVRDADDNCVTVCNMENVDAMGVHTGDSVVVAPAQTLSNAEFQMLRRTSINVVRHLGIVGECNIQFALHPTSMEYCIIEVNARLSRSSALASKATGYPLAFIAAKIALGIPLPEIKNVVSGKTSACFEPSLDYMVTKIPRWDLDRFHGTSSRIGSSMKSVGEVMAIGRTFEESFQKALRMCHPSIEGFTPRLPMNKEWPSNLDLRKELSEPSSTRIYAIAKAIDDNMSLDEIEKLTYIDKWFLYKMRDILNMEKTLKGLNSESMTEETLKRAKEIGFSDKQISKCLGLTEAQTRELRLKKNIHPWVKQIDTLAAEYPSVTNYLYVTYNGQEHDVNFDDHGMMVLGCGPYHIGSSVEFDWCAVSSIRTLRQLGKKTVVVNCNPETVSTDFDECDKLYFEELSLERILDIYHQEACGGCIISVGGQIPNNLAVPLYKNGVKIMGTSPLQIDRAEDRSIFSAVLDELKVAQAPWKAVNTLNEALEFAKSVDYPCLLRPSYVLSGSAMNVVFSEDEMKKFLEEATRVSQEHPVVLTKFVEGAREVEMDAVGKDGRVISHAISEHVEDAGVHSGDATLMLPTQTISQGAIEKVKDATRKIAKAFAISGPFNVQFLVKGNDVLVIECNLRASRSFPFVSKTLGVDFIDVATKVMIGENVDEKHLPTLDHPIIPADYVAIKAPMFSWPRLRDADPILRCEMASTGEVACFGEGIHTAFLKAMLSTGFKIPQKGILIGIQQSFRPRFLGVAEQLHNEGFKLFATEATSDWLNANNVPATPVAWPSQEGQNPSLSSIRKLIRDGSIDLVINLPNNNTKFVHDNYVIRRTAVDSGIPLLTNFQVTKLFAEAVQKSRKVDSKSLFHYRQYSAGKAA
Experiment: ADP-Glo endpoint assay measuring the ATPase activity of CPS1
Format: biochemical
Conditions: geometric mean of a minimum of two values; 50 nM CPS1, 10 μM ATP, 0.2 mM NAG, 60 min at room temperature; read-out: ADPGlo IC50
Procedure: CPS1 was expressed and purified from SF21 insect cells. The full length, human CPS1 gene was cloned into pFastBac HTA and baculovirus was generated using the Bac-to-bac expression system from Invitrogen. P3 virus was used to infect SF21 insect cells at a density of 1.5E6 cells/mL at an MOI of 2. Cells were harvested by centrifugation after 60 hrs and the cell pellet resuspended in lysis buffer (50 mM glycyl glycine pH 7.4, 20 mM KCl, 1 mM TCEP, 10% glycerol and 20 mM imidazole with Roche protease inhibitor tablet) before being lysed with 40 strokes of a Dounce homogenizer on ice. The insoluble fraction of the lysate was then cleared by centrifugation at 30,000 rpm for 30 min. 40 mL of supernatant was mixed with 2 mL of Ni NTA beads for 45 min at 4° C. in a 50 mL conical tube.
The beads were washed with 40 mL of wash buffer (50 mM glycyl glycine pH 7.4, 500 mM NaCl, 1 mM TCEP, 10% glycerol and 50 mM imidazole) by centrifugation and resuspension of the beads three times. Bound CPS1 protein was eluted in 6 mL of elution buffer (50 mM glycyl glycine pH 7.4, 500 mM NaCl, 1 mM TCEP, 10% glycerol and 250 mM imidazole) three times. Elution fractions were combined and concentrated using an Amicon Ultra centrifugation filter with a 10,000 molecular weight cut off. Imidazole was removed by repeated concentration and resuspension in storage buffer in the filter device (50 mM glycyl glycine pH 7.4, 500 mM NaCl, 1 mM TCEP and 20% glycerol). CPS1 was concentrated to a final concentration of ˜3 mg/mL before being aliquoted, flash frozen in liquid nitrogen and stored at −80° C.
CPS1 activity was measured and compounds profiled in an endpoint assay measuring the ATPase activity of CPS1 using the ADP-Glo kit from Promega. 50 nM CPS1 was incubated alone or with varying amounts of tested compound from DMSO stocks in assay buffer (50 mM HEPES pH 7.0, 12.5 mM KHCO3, 1.5 mM (NH4)2SO3, 5 mM MgCl2, 50 mM KCl, 1 mM TCEP, 0.01% TritonX 100, 0.0025% BSA and 0.2 mM NAG) for 20 min in a 3 μL volume in a 384-well plate (Corning Cat#3820). The final concentration of DMSO was 0.04%. The reaction was initiated by the addition of 10 μM ATP, bringing the final volume to 6 μL. After 60 min at room temperature, the reaction was terminated with 3 μL ADP-Glo reagent and incubated at room temperature for 30 min. 3 μL of kinase detection reagent was then added and luminescent signal measured on an Envision plate reader after 30 min.

Row | SMILES | IC50 [µM]
1 | COc1ccc(C(=O)N2[C@H](C)CN(C(=O)c3cc(NC(C)=O)ccc3F)C[C@H]2C)c(F)c1 [Compound 103, N-(4-fluoro-3-((3R,5R)-4-(2-fluoro-4-methoxybenzoyl)-3,5-dimethylpiperazine-1-carbonyl)phenyl)acetamide] | > 66.7
2 | COc1ccc(OC)c2[nH]c(C(=O)N3C[C@@H](C)N(C(=O)c4ccc5cc[nH]c5c4)[C@H](C)C3)cc12 [Compound 53, ((3R,5R)-4-(1H-indole-6-carbonyl)-3,5-dimethylpiperazin-1-yl)(4,7-dimethoxy-1H-indol-2-yl)methanone] | 1.59
3 | COc1ccc(C(=O)N2[C@H](C)CN(C(=O)c3c[nH]c4ccccc34)C[C@H]2C)c(F)c1 [Compound 77, ((2R,6R)-4-(1H-indole-3-carbonyl)-2,6-dimethylpiperazin-1-yl)(2-fluoro-4-methoxyphenyl)methanone] | 18.9
4 | COc1ccc(C(=O)N2[C@H](C)CN(C(=O)c3ccc4ccn(C)c4c3)C[C@H]2C)c(F)c1 [Compound 83, ((2R,6R)-2,6-dimethyl-4-(1-methyl-1H-indole-6-carbonyl)piperazin-1-yl)(2-fluoro-4-methoxyphenyl)methanone] | 31
5 | COc1ccc(C(=O)N2C[C@@H](C)N(C(=O)c3ccc(Cl)cc3F)[C@H](C)C2)c(F)c1 [Compound 66, ((3R,5R)-4-(4-chloro-2-fluorobenzoyl)-3,5-dimethylpiperazin-1-yl)(2-fluoro-4-methoxyphenyl)methanone] | 4.91
6 | COc1ccc(C(=O)N2[C@H](C)CN(C(=O)Cc3n[nH]c4ccccc34)C[C@H]2C)c(F)c1 [Compound 88, 1-((3R,5R)-4-(2-fluoro-4-methoxybenzoyl)-3,5-dimethylpiperazin-1-yl)-2-(1H-indazol-3-yl)ethanone] | 38.2
7 | COc1ccc(C(=O)N2C[C@@H](C)N(C(=O)c3ccc(OC)c(F)c3F)[C@H](C)C2)c(F)c1 [Compound 34, ((3R,5R)-4-(2,3-Difluoro-4-methoxybenzoyl)-3,5-dimethylpiperazin-1-yl)(2-fluoro-4-methoxyphenyl)methanone] | 0.387
8 | COc1ccc(C(=O)N2[C@H](C)CN(C(=O)Cc3c(C)[nH]c4ccccc34)C[C@H]2C)c(F)c1 [Compound 78, 1-((3R,5R)-4-(2-fluoro-4-methoxybenzoyl)-3,5-dimethylpiperazin-1-yl)-2-(2-methyl-1H-indol-3-yl)ethanone] | 19.2
9 | COc1ccc(C(=O)N2[C@H](C)CN(C(=O)c3ccc(OC)c(F)c3F)C[C@H]2C)c(F)c1 [Compound 2, ((2R,6R)-4-(2,3-Difluoro-4-methoxybenzoyl)-2,6-dimethylpiperazin-1-yl)(2-fluoro-4-methoxyphenyl)methanone] | 0.427

Next, values leading:

Row | IC50 [µM] | SMILES
10 | > 66.7 | COc1ccc(C(=O)N2[C@@H](C)CN(C(=O)c3cc(OC)ccc3F)C[C@@H]2C)c(F)c1 [Compound 97, ((3S,5S)-4-(2-fluoro-4-methoxybenzoyl)-3,5-dimethylpiperazin-1-yl)(2-fluoro-5-methoxyphenyl)methanone]
11 | > 66.7 | COc1ccc(C(=O)N2[C@H](C)CN(C(=O)c3cc(OC)ccc3F)C[C@H]2C)c(F)c1 [Compound 96, ((3R,5R)-4-(2-fluoro-4-methoxybenzoyl)-3,5-dimethylpiperazin-1-yl)(2-fluoro-5-methoxyphenyl)methanone]
12 | 6.98 | COc1ccc(C(=O)N2C[C@@H](C)N(C(=O)c3ccc(OC)cc3F)[C@@H](C)C2)c(F)c1 [Compound 50, ((2R,6S)-2,6-Dimethylpiperazine-1,4-diyl)bis((2-fluoro-4-methoxyphenyl)methanone)]
13 | 2.59 | COc1ccc(C(=O)N2[C@H](C)CN(C(=O)c3ccc(F)cc3F)C[C@H]2C)c(F)c1 [Compound 12, ((2R,6R)-4-(2,4-Difluorobenzoyl)-2,6-dimethylpiperazin-1-yl)(2-fluoro-4-methoxyphenyl)methanone]
14 | 0.714 | COc1ccc(C(=O)N2C[C@H](C)N(C(=O)c3ccc(OC)cc3F)C[C@H]2C)c(F)c1 [Compound 47, ((2S,5R)-2,5-dimethylpiperazine-1,4-diyl)bis((2-fluoro-4-methoxyphenyl)methanone)]
